# Measurements published in patent EP0334146A1, “Morpholines and morpholine-N-oxides, medicines containing these compounds and process for their preparation” (Dr. Karl Thomae GmbH, priority 1988, dated 1989).
# System: Mäusen
# Assay: Cardiac side effects: heart rate by ECG-triggered tachograph during the blood glucose test
# Assay type: in vivo
# Conditions: Dose 3,0 mg/kg oral; one hour after application; values in brackets = not significant (p > 0.05)
# Text: Das Auftreten von unerwünschten Nebenwirkungen auf das Herz konnte für die erfindungsgemäßen Verbindungen für den therapeutisch angestrebten stoffwechselaktiven Dosisbereich ausgeschlossen werden. Als Nachweis diente die Messung der Herzfrequenz an Mäusen während der Testung auf blutzuckersenkende Wirkung (s.o.). Eine Stunde nach der oralen Applikation der Verbindungen wurde die Herzfrequenz mittels EKG-getriggertem Tachographen bestimmt. Die nachfolgende Tabelle gibt die Änderung der Herzfrequenz in % der Kontrollgruppe wieder.
smiles,measurement,value
"CC(Cc1ccc(OCC(=O)O)cc1)N1CCOC(c2cccc(Cl)n2)C1 (stereo not shown) [Beispiel 4, N-[2-(4-Carboxymethoxyphenyl)-1-methylethyl]-2-(6-chlor-pyridin-2-yl)-morpholin]","Änderung der Herzfrequenz, % Änderung vom Wert der Kontrollgruppe",( 0 ) %
